Experimental findings from PubChem BioAssay (NCI) are described below.

Holding throughout (experiment): DTP human tumour cell line panel, 48 h
For test [1], the system named is NCI-H23 lung.
Test [2] deals with A549 NSCLC.
Test [3] deals with MALME-3M melanoma.
Test [4] deals with DU-145 prostate.

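Assay format: 96-well plates, 48-hour exposure. TGI is the concentration that stops growth completely.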 Where a SMILES comes first, the peptide text is derived from it. The star is where a group is joined. OBn = c1ccc(CO*)cc1

On to `COC(=O)/C=C(\S/C(=C(/c1ccc(OC)cc1)n1cc(C(=O)OC)c(C(=O)OC)n1)c1ccc(OC)cc1)C(=O)OC`, for which the TGI is above 100 µM in test [1], above 100 µM in test [2], 37.1 µM in test [3] and 40.3 µM in test [4].

On to `Cc1ccnc2nc3[nH]c4ccccc4c3cc12`, for which the concentration for total growth inhibition (TGI) in test [1], in test [2] and in test [4] was above 100 µM throughout.

As for `COc1cc(/C=N/NC2=NCCCN2)ccc1O`, the TGI in test [1], in test [2], in test [3] and in test [4] was above 100 µM throughout.

Turning to `CCCCCNC1=CC(=O)c2ccccc2C1=O`, the TGI was 58.3 µM in test [1], above 100 µM in test [2], above 95.3 µM in test [3] and above 100 µM in test [4].

Take `O=Cc1ccc2c(c1)CC1(C2)Cc2ccc(C=O)cc2C1`: the TGI in test [1] is 49.8 µM; in test [2], above 95.3 µM; in test [3] it was 46.1 µM; in test [4], above 100 µM.

Take `O=C(NN1C(=O)c2ccccc2C1=O)c1ccccc1Nc1ccccc1C(=O)NN1C(=O)c2ccccc2C1=O`: the TGI in test [1], in test [3] and in test [4] was above 100 µM in each case.

In the case of `CCCCc1ccc(N2C(=O)c3cccnc3S2(=O)=O)cc1`, the TGI in test [1], in test [2], in test [3] and in test [4] was above 100 µM throughout.

In the case of `Cc1ccccc1NC(=O)/C(C#N)=N\Nc1nc[nH]c1C(N)=O`, the total growth inhibition concentration (TGI) in test [1], in test [2], in test [3] and in test [4] was above 100 µM each time.

Turning to `CC(Oc1ccc(Cl)cc1Cl)C(=O)NN1C(=O)CSC1c1ccc(Cl)cc1` (stereo not drawn), the total growth inhibition concentration (TGI) in test [1], in test [2] and in test [4] was above 100 µM in each case.

Regarding `COc1cc(C2S/C(=C/c3ccccc3)C(=O)N2c2ccc([N+](=O)[O-])cc2)cc(OC)c1OC` (stereo not drawn), the TGI in test [1] was above 100 µM; in test [2], above 100 µM; in test [3], above 100 µM; in test [4] it was above 89.1 µM.

As for `O=C1CCSc2c(cnc3ccccc23)N1`, the TGI in test [1], in test [2], in test [3] and in test [4] was above 100 µM throughout.

Regarding `O=C(O)CCSc1nnc(COc2ccc(Cl)cc2)n1-c1ccccc1`, the TGI in test [1], in test [2], in test [3] and in test [4] was above 100 µM in each case.

As to `COc1ccc(N2C(=O)/C(=C\c3cc(OC)c(OC)c(OC)c3)S(=O)(=O)C2c2ccccc2)cc1` (stereo not drawn), the TGI in test [1], in test [2], in test [3] and in test [4] was above 100 µM throughout.

In the case of `CCOC(=O)Oc1cc2c(ccn2C)c2c1c1ccccc1n2C(=O)OCC`, the TGI in test [1], in test [2], in test [3] and in test [4] was above 100 µM throughout.

Regarding `CO[C@H](c1ccccc1)[C@H](O)[C@](O)(c1ccccc1)P(=O)(OC)OC`, the TGI in test [1], in test [2], in test [3] and in test [4] was above 100 µM in each case.

With `NC(CCC(=O)OCc1ccccc1)C(=O)NC(CCC(=O)OCc1ccccc1)C(=O)O` (stereo not drawn) (H-Glu(OBn)-Glu(OBn)-OH; configuration not given here), the TGI in test [1], in test [2], in test [3] and in test [4] was above 100 µM throughout.

Turning to `CC1=[N+]([O-])C(C)(C)N(O)C1(C)C`, the TGI in test [1], in test [2], in test [3] and in test [4] was above 100 µM throughout.

As to `N#CC(C#N)=C1CCCCc2ccc([N+](=O)[O-])cc21`, the concentration for total growth inhibition (TGI) in test [1], in test [2], in test [3] and in test [4] was above 100 µM each time.

As to `CN1CCC/C1=C1\C(=O)c2cccn2C1=O`, the TGI in test [1], in test [2], in test [3] and in test [4] was above 100 µM in each case.

On to `CC(C)N1CCCOC(c2ccc([N+](=O)[O-])cc2)O1` (stereo not drawn), for which the TGI in test [1], in test [2], in test [3] and in test [4] was above 100 µM throughout.

Take `COc1ccccc1CNCc1nc2ccccc2[nH]1`: the TGI in test [1], in test [2] and in test [4] was above 100 µM throughout.

`CC(C)(CCCCC(C)(C)NCC1COc2ccccc2O1)NCC1COc2ccccc2O1` (stereo not drawn): the TGI in test [1] is above 10 µM; in test [2], above 10 µM; in test [3] it was 4.65 µM; in test [4], above 10 µM.

With `COc1ccccc1N1C(=O)/C(=C\c2cc(OC)c(OC)c(OC)c2)S(=O)(=O)C1c1ccccc1` (stereo not drawn), the TGI is above 100 µM in test [1], above 100 µM in test [2], 96.3 µM in test [3] and above 100 µM in test [4].

For the compound `COc1ccc(-c2cc(-c3ccco3)c(C#N)c(=S)n2C2OC(CO)C(O)C(O)C2O)cc1` (stereo not drawn), the TGI in test [1], in test [2] and in test [3] was above 100 µM throughout.

Take `N=C(N)C1CN(CC=O)C(=O)NC1=O` (stereo not drawn): the TGI in test [1], in test [2], in test [3] and in test [4] was above 100 µM each time.

Turning to `CC(CCC(=O)O)[C@H]1CCC2[C@H]3C(CC(=O)[C@@]21C)[C@@]1(C)CCC(O)C[C@H]1C[C@@H]3O` (stereo partly drawn), the TGI in test [1], in test [2], in test [3] and in test [4] was above 100 µM each time.

Regarding `CC(=C(C(=O)O)C(=O)O)c1cc(-c2cccs2)cc(-c2ccc(Cl)cc2)c1O`, the TGI was 32.6 µM in test [1], above 80.8 µM in test [2], 41 µM in test [3] and 30.6 µM in test [4].

Usually TGI stands for the concentration at which net growth stops.
